Measured values published in patent US20240082212A1, “USE OF MDMA FOR TREATMENT OF STRESS-RELATED DISORDERS” (priority 2022, published 2024).
“Also recorded” adds a separate entry of the source.

Legend:
CD (Sprague Dawley) rats = assay: Rat telemetry: heart rate, blood pressure, body temperature, activity after cumulative SC dosing; format: in vivo
Source text: Methods. A total of 42 adult male CD® (Sprague Dawley) rats (Charles River Laboratories) were surgically implanted with DSI radiotelemetry devices by personnel at Charles River Laboratories Raleigh, NC, per their test site SOPs. Telemetry devices supported continuous recording of temperature, activity, blood pressure and heart rate. Telemeterized rats were shipped to the Charles River Laboratories testing facility (Mattawan, MI) and acclimated to the environment for at least 1 week prior to experimentation. Animals were pair-housed in solid bottom cages with nonaromatic bedding. On the dosing day, animals were singly housed and then returned to the paired cohort following the dosing/telemetry recording phase. Diet (Lab Diet® Certified Rodent Diet #5CR4) and tap water via an automatic water system were available ad libitum, except during designated procedures. Temperature and humidity were maintained according to the Testing Facility SOP. Animals were randomized into treatment groups using a standard, by weight, measured value randomization procedure. Body weight was determined for each rat prior to dosing.
As illustrated in the Table, a total of 36 rats were included in the study. The vehicle and 2 test article doses were administered in a volume of 1 mL/kg to each of 3 groups of n=12 telemeterized rats via subcutaneous injection four times on a given day, followed by neurobehavioral evaluations. This series was repeated 3 times on study. Each group received all 3 dose levels of the applicable test or control article in ascending order with a 1-week washout between dose levels.
Mortality/cage side clinical observations were conducted for all study animals at least twice daily beginning upon receipt through termination, except on days of receipt and termination where frequency was at least once daily. Detailed clinical observations were conducted for all study animals prior to each of the four cumulative doses in a series. Individual body weights were conducted for all study animals at transfer, prior to randomization, on the day of dosing on each of the 3 cycles of dosing. The body weights recorded at transfer and prior to randomization are not reported but are maintained in the study file. Veterinary care was available throughout the course of the study, and animals were examined by the veterinary staff as needed based on clinical signs or other changes. All animals were provided with HydroGel the night prior to their respective dosing days to potentially mitigate any animal welfare issues related to fluid loss/dehydration.
Telemetry monitoring was conducted for all animals 2 hours prior to dosing and through to 7.5 hours following the last (4th) cumulative dose of each series, which included continuous data collection of body temperature, activity, heart rate, and blood pressure (systolic, diastolic, and mean arterial) using telemetry.
The total period of time over which the statistical analyses were conducted encompassed the entire dosing period for all animals (i.e., Dose 1 through 7.5 hour post-4th dose) in an effort to draw conclusions regarding the effects of the dosing procedure and cumulative changes by allowing comparisons between the cumulative dosing periods. The following statistical analyses were performed for each analysis segment.
All time-series data comparisons conducted via statistical analysis are relative to the control treatment and are based on the LSMean values. Additionally, the change values used for the statistical analysis were calculated using a baseline of the 2 hours of pre-dose data, prior to the first compound injection of the series. The raw change values were analyzed.

C57BL/6J mice = assay: Head twitch response (HTR); format: in vivo, mouse; settings: 3 mg/kg IP, 30 minutes after injection
Summary of the method: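 Male C57BL/6J mice with head-mounted magnets were given vehicle or test drug IP (0.1–10 mg/kg, salt-based dose, in saline; n=5-6/group). Head twitches were recorded by magnetometer coil for 30 minutes immediately after injection and classified by ResNet-50 features with SVM; treatments at least seven days apart.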

[1] = Rat brain monoamine and metabolite concentrations 1 week after cumulative SC dosing; settings: cumulative SC, 1 week after dosing
[2] = telemetry, cumulative SC dosing, dose groups stated in the value

CNC(C)Cc1ccc2c(c1)OCO2 (single isomer, unassigned) [R-MDMA, R(−)-3,4-methylenedioxymethamphetamine]
stepwise increases in blood pressure or heart rate with repeated doses (CD (Sprague Dawley) rats; 4 hourly SC injections during telemetry monitoring): no stepwise increases in blood pressure or heart rate were observed | hemodynamic parameters (systolic/diastolic/mean arterial blood pressures and heart rate) (CD (Sprague Dawley) rats; 4 hourly SC injections, cumulative doses 5, 10, or 20 mg/kg/day): dose-dependent blood pressure-increasing effects | body temperature response (CD (Sprague Dawley) rats; R-MDMA 10 mg/kg/day, 4 hourly SC injections): hypothermic response | body temperature response (CD (Sprague Dawley) rats; R-MDMA 20 mg/kg/day, 4 hourly SC injections): hyperthermic response | activity (implanted telemetry devices) (CD (Sprague Dawley) rats; all cumulative doses (5, 10, or 20 mg/kg/day)): Activity-increasing effects | recovery of blood pressure effects (CD (Sprague Dawley) rats; by the end of telemetry monitoring (7.5 h after 4th dose)): only test article examined which produced recoverable effects by the end of telemetry monitoring | heart rate increase (CD (Sprague Dawley) rats; maximum change, R-MDMA and racemic MDMA 10, 20 mg/kg/day, S-MDMA 5, 10 mg/kg/day, 4 hourly SC injections): up to +23% | peak body temperatures (CD (Sprague Dawley) rats; overall mean magnitude of change, 4 hourly SC injections): 38.6 °C | Rank Order Blood Pressures (Systolic, Diastolic, and Mean Arterial) Effects (CD (Sprague Dawley) rats; [2]): R-MDMA (10 mg/kg/day) < S-MDMA (5 mg/kg/day) < Rac.-MDMA (10 mg/kg/day); also recorded: R-MDMA (20 mg/kg/day) < S-MDMA (10 mg/kg/day) < Rac-MDMA (20 mg/kg/day); also recorded: R-MDMA (0 mg/kg/day) < R-MDMA (10 mg/kg/day) < R-MDMA (20 mg/kg/day); also recorded: R-MDMA (10 mg/kg/day) < S-MDMA (10 mg/kg/day) < Rac-MDMA (20 mg/kg/day) | Rank Order Body Temperature Effects (CD (Sprague Dawley) rats; [2]): R-MDMA (10 mg/kg/day) < S-MDMA (5 mg/kg/day) < Rac.-MDMA (10 mg/kg/day); also recorded: R-MDMA (20 mg/kg/day) < S-MDMA (10 mg/kg/day) < Rac-MDMA (20 mg/kg/day); also recorded: R-MDMA (0 mg/kg/day) < R-MDMA (10 mg/kg/day) < R-MDMA (20 mg/kg/day); also recorded: R-MDMA (10 mg/kg/day) < S-MDMA (10 mg/kg/day) < Rac-MDMA (20 mg/kg/day) | Rank Order General Activity Effects (CD (Sprague Dawley) rats; [2]): R-MDMA (10 mg/kg/day) < S-MDMA (5 mg/kg/day) < Rac.-MDMA (10 mg/kg/day); also recorded: R-MDMA (20 mg/kg/day) < S-MDMA (10 mg/kg/day) < Rac-MDMA (20 mg/kg/day); also recorded: R-MDMA (0 mg/kg/day) < R-MDMA (10 mg/kg/day) < R-MDMA (20 mg/kg/day); also recorded: R-MDMA (10 mg/kg/day) < S-MDMA (10 mg/kg/day) < Rac-MDMA (20 mg/kg/day) | Rank Order Heart Rate Measurement Effects (CD (Sprague Dawley) rats; [2]): R-MDMA (10 mg/kg/day) < S-MDMA (5 mg/kg/day) < Rac.-MDMA (10 mg/kg/day); also recorded: R-MDMA (20 mg/kg/day) < S-MDMA (10 mg/kg/day) < Rac-MDMA (20 mg/kg/day); also recorded: R-MDMA (0 mg/kg/day) < R-MDMA (10 mg/kg/day) < R-MDMA (20 mg/kg/day); also recorded: R-MDMA (10 mg/kg/day) < S-MDMA (10 mg/kg/day) < Rac-MDMA (20 mg/kg/day) | head twitch response (HTR) compared to control (vehicle) (C57BL/6J mice): increase in HTR | striatal DA compared to the corresponding vehicle condition ([1]; 5 mg/kg/injection): significantly increased striatal DA | frontal cortex 5-HT (serotonin) compared to vehicle ([1]; 5 mg/kg/injection, 5 mg/kg): did not reduce serotonin content in the frontal cortex | striatal HVA compared to the pooled vehicle condition ([1]; 10 mg/kg/injection, n=2): significantly reduced striatal HVA
